In ChEMBL document CHEMBL3352123, “Structure activity relationship study of curcumin analogues toward the amyloid-beta aggregation inhibitor” (Bioorg Med Chem Lett, 2014):
≈ marks a conversion by molar mass, not a printed value.

Assays:
[1] = biological target: Amyloid-beta precursor protein (Homo sapiens) (UniProt P05067); test: Inhibition of amyloid beta-42 self-aggregation (unknown origin) at 25 uM after 20 hrs by ThT fluorescence assay
[2] = Aqueous solubility of the compound after 12 hrs by shake-flask method; assay type: physicochemical; details: buffer

Chain of Amyloid-beta precursor protein (Homo sapiens) (P05067 whole entry): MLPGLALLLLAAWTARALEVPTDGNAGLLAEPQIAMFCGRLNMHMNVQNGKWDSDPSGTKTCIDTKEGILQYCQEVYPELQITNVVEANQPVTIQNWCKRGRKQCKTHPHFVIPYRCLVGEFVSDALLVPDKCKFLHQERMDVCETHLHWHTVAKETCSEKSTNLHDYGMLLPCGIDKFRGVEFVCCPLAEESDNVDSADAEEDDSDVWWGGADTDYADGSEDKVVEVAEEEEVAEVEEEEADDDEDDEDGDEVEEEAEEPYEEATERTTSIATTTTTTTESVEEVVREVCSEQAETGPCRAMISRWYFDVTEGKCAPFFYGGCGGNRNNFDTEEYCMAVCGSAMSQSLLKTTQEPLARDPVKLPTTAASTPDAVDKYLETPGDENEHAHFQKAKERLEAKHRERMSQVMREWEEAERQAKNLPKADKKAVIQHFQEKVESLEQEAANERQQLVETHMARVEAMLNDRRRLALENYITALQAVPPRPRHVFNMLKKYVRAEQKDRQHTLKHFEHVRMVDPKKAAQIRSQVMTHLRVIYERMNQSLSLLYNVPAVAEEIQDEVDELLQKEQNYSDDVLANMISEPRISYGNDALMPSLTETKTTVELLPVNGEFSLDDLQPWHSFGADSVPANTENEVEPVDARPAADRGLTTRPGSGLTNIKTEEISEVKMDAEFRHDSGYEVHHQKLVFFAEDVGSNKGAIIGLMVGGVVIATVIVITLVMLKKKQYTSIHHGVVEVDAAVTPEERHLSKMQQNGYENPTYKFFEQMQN

| inhibition [1] [%] | solubility thermodynamic at 12 h [2] [µM] | SMILES |
| --- | --- | --- |
| 0 | – | COc1ccc(/C=C/C(=O)/C=C(O)/C=C/c2ccc(OC)c(OC)c2)cc1OC |
| 80 | – | O=C(/C=C/c1ccccc1O)CC(=O)/C=C/c1ccccc1O |
| 95 | – | COc1cc(/C=C/C(=O)CC(=O)/C=C/c2ccc(O)c(O)c2)cc(OC)c1OC |
| 46 | 6.2 (≈ 2.31 µg/mL) | O=C(/C=C/c1cc(O)c(O)c(O)c1)CC(=O)/C=C/c1cc(O)c(O)c(O)c1 |
| 97 | – | O=C(/C=C/c1cccc([N+](=O)[O-])c1)CC(=O)/C=C/c1ccc(O)c(O)c1 |
| 47 | 16 (≈ 5.13 µg/mL) | Oc1ccc(/C=C/c2cc(/C=C/c3ccccc3O)[nH]n2)cc1O |
| 79 | – | O=C(/C=C/c1cccc(O)c1)CC(=O)/C=C/c1cccc(O)c1 |
| 90 | 98 (≈ 33 µg/mL) | Oc1ccc(/C=C/c2cc(/C=C/c3ccc(O)c(O)c3)[nH]n2)cc1O |
| 30 | 12 (≈ 4.76 µg/mL) | COc1cc(/C=C/C(=O)C(C)(C)C(=O)/C=C/c2ccc(O)c(OC)c2)ccc1O |
| – | 10 (≈ 3.2 µg/mL) | Oc1cccc(/C=C/c2cc(/C=C/c3ccc(O)c(O)c3)n[nH]2)c1 |
| 51 | 1.2 (≈ 0.437 µg/mL) | COc1cc(/C=C/c2cc(/C=C/c3ccc(O)c(OC)c3)[nH]n2)ccc1O [CURCUMIN PYRAZOLE] |
| 100 | 5.4 (≈ 2 µg/mL) | COc1c(O)cc(/C=C/C(=O)CC(=O)/C=C/c2ccc(O)c(O)c2)cc1O |
| 73 | 47 (≈ 16 µg/mL) | O=C(/C=C/c1cc(O)c(O)c(O)c1)CC(=O)/C=C/c1ccccc1O |
| 100 | 50 (≈ 17.8 µg/mL) | O=C(/C=C/c1ccc(O)c(O)c1)CC(=O)/C=C/c1cc(O)c(O)c(O)c1 |
| 89 | 0.66 (≈ 0.214 µg/mL) | O=C(/C=C/c1ccc(O)cc1)CC(=O)/C=C/c1ccc(O)c(O)c1 |
| 95 | 0.009 (≈ 0.00305 µg/mL) | COc1ccc(/C=C/C(=O)CC(=O)/C=C/c2ccc(O)c(O)c2)cc1 |
| 99 | 6.2 (≈ 2.01 µg/mL) | O=C(/C=C/c1cccc(O)c1)CC(=O)/C=C/c1ccc(O)c(O)c1 |
| 99 | 2.4 (≈ 0.817 µg/mL) | O=C(/C=C/c1ccc(O)c(O)c1)CC(=O)/C=C/c1ccc(O)c(O)c1 [DIDEMETHYLCURCUMIN] |
| 100 | 31 (≈ 10.1 µg/mL) | O=C(/C=C/c1ccc(O)c(O)c1)CC(=O)/C=C/c1ccccc1O |
| 80 | 0.19 (≈ 0.07 µg/mL) | COc1cc(/C=C/C(=O)CC(=O)/C=C/c2ccc(O)c(OC)c2)ccc1O [CURCUMIN] |
| 75 | – | O=C(/C=C/c1ccc(O)cc1)CC(=O)/C=C/c1ccc(O)cc1 |
| 95 | 0.11 (≈ 0.0372 µg/mL) | COc1cccc(/C=C/C(=O)CC(=O)/C=C/c2ccc(O)c(O)c2)c1 |
| 100 | 0.12 (≈ 0.0406 µg/mL) | COc1ccccc1/C=C/C(=O)CC(=O)/C=C/c1ccc(O)c(O)c1 |
| 96 | – | N#Cc1cccc(/C=C/C(=O)CC(=O)/C=C/c2ccc(O)c(O)c2)c1 |
